According to the NIST ThermoML archive (doi:10.1021/je500513b):
± gives the expanded uncertainty stated by the source.

Test: mn = molality of the nth substance listed, in mol/kg
Settings: for surface tension liquid-gas: Pendant drop shape; for electrical conductivity: 100 kPa, Liquid, Mettler Toledo inLab 710

CCCCCCCCCCCC[N+](C)(C)CCC[N+](C)(C)CCCCCCCCCCCC.[Br-].[Br-] + O
Settings | electrical conductivity, 298.15 K [S/m] | electrical conductivity, 303.15 K [S/m] | electrical conductivity, 308.15 K [S/m] | electrical conductivity, 313.15 K [S/m] | electrical conductivity, 318.15 K [S/m] | electrical conductivity, 323.15 K [S/m] | surface tension liquid-gas, 298.15 K [mN/m]
m1 = 0.0001 | – | – | – | – | – | – | 60.28 ± 2.1
m1 = 0.0002 | – | – | – | – | – | – | 51.37 ± 1.3
m1 = 0.0004 | – | – | – | – | – | – | 41.67 ± 0.87
m1 = 0.00057 | 0.0117 ± 0.0005 | 0.0131 ± 0.0005 | – | 0.0152 ± 0.0008 | 0.0174 ± 0.0007 | – | –
m1 = 0.00059 | – | – | – | – | – | 0.0191 ± 0.0006 | –
m1 = 0.0006 | – | – | – | – | – | – | 36.01 ± 0.67
m1 = 0.00061 | 0.0126 ± 0.0005 | 0.0139 ± 0.0005 | – | 0.0168 ± 0.0007 | 0.0186 ± 0.0008 | – | –
m1 = 0.00063 | – | – | – | – | – | 0.0203 ± 0.0007 | –
m1 = 0.00064 | 0.0132 ± 0.0004 | 0.0146 ± 0.0005 | 0.0159 ± 0.0005 | 0.0176 ± 0.0006 | 0.0199 ± 0.0008 | – | –
m1 = 0.00067 | 0.0138 ± 0.0004 | 0.0152 ± 0.0005 | 0.0168 ± 0.0006 | 0.0186 ± 0.0007 | 0.0209 ± 0.0007 | 0.0218 ± 0.0008 | –
m1 = 0.0007 | 0.0144 ± 0.0004 | 0.0159 ± 0.0005 | 0.0176 ± 0.0005 | 0.0197 ± 0.0006 | 0.0219 ± 0.0007 | 0.0229 ± 0.0007 | 33.17 ± 0.46
m1 = 0.00074 | 0.0151 ± 0.0004 | 0.0168 ± 0.0004 | 0.0184 ± 0.0005 | 0.0207 ± 0.0005 | 0.0231 ± 0.0006 | 0.0241 ± 0.0006 | –
m1 = 0.00077 | 0.0156 ± 0.0004 | 0.0172 ± 0.0004 | 0.0191 ± 0.0005 | – | – | – | –
m1 = 0.00079 | – | – | – | 0.0217 ± 0.0005 | 0.0245 ± 0.0005 | 0.0256 ± 0.0007 | –
m1 = 0.0008 | 0.0161 ± 0.0003 | 0.0178 ± 0.0005 | 0.0196 ± 0.0004 | – | – | – | 32.87 ± 0.34
m1 = 0.00083 | 0.0165 ± 0.0003 | 0.0185 ± 0.0004 | 0.0203 ± 0.0004 | 0.0229 ± 0.0006 | 0.0253 ± 0.0005 | 0.0272 ± 0.0007 | –
m1 = 0.00085 | – | – | – | – | – | – | 32.79 ± 0.33
m1 = 0.00087 | 0.0168 ± 0.0002 | 0.0191 ± 0.0003 | 0.021 ± 0.0004 | 0.0237 ± 0.0005 | 0.0262 ± 0.0005 | 0.0282 ± 0.0006 | –
m1 = 0.0009 | – | – | – | – | – | – | 32.84 ± 0.33
m1 = 0.00091 | 0.0171 ± 0.0003 | 0.0195 ± 0.0003 | 0.0216 ± 0.0004 | 0.0245 ± 0.0005 | 0.0271 ± 0.0005 | 0.0293 ± 0.0006 | –
m1 = 0.00095 | 0.0175 ± 0.0003 | 0.02 ± 0.0003 | 0.0223 ± 0.0003 | 0.0254 ± 0.0005 | 0.028 ± 0.0005 | 0.0305 ± 0.0007 | –
m1 = 0.001 | 0.0179 ± 0.0002 | 0.0205 ± 0.0003 | 0.0228 ± 0.0003 | 0.0262 ± 0.0004 | 0.0289 ± 0.0005 | 0.0319 ± 0.0007 | 32.76 ± 0.33
m1 = 0.00105 | 0.0183 ± 0.0002 | 0.0209 ± 0.0003 | 0.0234 ± 0.0003 | 0.027 ± 0.0004 | 0.0299 ± 0.0005 | 0.0334 ± 0.0006 | –
m1 = 0.0011 | – | – | – | – | – | – | 32.75 ± 0.33
m1 = 0.00111 | 0.0187 ± 0.0002 | 0.0212 ± 0.0003 | 0.024 ± 0.0003 | 0.0277 ± 0.0004 | 0.0308 ± 0.0004 | 0.0349 ± 0.0005 | –
m1 = 0.00118 | 0.0191 ± 0.0002 | 0.0217 ± 0.0003 | 0.0244 ± 0.0003 | 0.0285 ± 0.0004 | 0.0318 ± 0.0004 | 0.036 ± 0.0005 | –
m1 = 0.0012 | – | – | – | – | – | – | 32.81 ± 0.33
m1 = 0.00125 | 0.0195 ± 0.0002 | 0.0221 ± 0.0002 | 0.025 ± 0.0003 | 0.0293 ± 0.0004 | 0.0327 ± 0.0004 | 0.0374 ± 0.0005 | –
m1 = 0.00134 | 0.0199 ± 0.0002 | 0.0225 ± 0.0002 | 0.0257 ± 0.0003 | 0.0301 ± 0.0004 | 0.0335 ± 0.0004 | 0.0384 ± 0.0004 | –
m1 = 0.00143 | 0.0203 ± 0.0002 | 0.0229 ± 0.0003 | 0.0264 ± 0.0003 | 0.031 ± 0.0004 | 0.0347 ± 0.0004 | 0.0394 ± 0.0004 | –
m1 = 0.0015 | – | – | – | – | – | – | 32.59 ± 0.33
m1 = 0.00154 | 0.0208 ± 0.0002 | 0.0235 ± 0.0003 | 0.027 ± 0.0003 | 0.0319 ± 0.0004 | 0.0357 ± 0.0004 | 0.0404 ± 0.0005 | –
m1 = 0.0016 | 0.0211 ± 0.0002 | 0.0237 ± 0.0003 | – | – | – | 0.0413 ± 0.0005 | –
m1 = 0.00163 | – | – | 0.0277 ± 0.0003 | – | – | – | –
m1 = 0.00167 | 0.0214 ± 0.0002 | 0.0242 ± 0.0003 | – | 0.0327 ± 0.0003 | 0.037 ± 0.0004 | 0.042 ± 0.0005 | –
m1 = 0.0017 | – | – | 0.028 ± 0.0003 | – | – | – | –
m1 = 0.00174 | 0.0217 ± 0.0002 | 0.0247 ± 0.0003 | – | 0.0331 ± 0.0004 | 0.0376 ± 0.0004 | 0.0427 ± 0.0005 | –
m1 = 0.00178 | – | – | 0.0285 ± 0.0003 | – | – | – | –
m1 = 0.00182 | 0.0221 ± 0.0002 | 0.0251 ± 0.0003 | – | 0.0336 ± 0.0004 | 0.0383 ± 0.0004 | 0.0434 ± 0.0005 | –
m1 = 0.00186 | – | – | 0.0291 ± 0.0003 | – | – | – | –
m1 = 0.00191 | 0.0225 ± 0.0003 | 0.0256 ± 0.0003 | – | 0.0343 ± 0.0004 | 0.039 ± 0.0004 | 0.044 ± 0.0005 | –
m1 = 0.002 | 0.023 ± 0.0003 | 0.0263 ± 0.0003 | 0.0301 ± 0.0004 | 0.0349 ± 0.0004 | 0.0399 ± 0.0005 | 0.0451 ± 0.0005 | 32.62 ± 0.33
